In patent publication US9210914B2, “Method for training honeybees to respond to olfactory stimuli and enhancement of memory retention therein” (LOS ALAMOS NATIONAL SECURITY, LLC, priority 2011, dated 2015):

How the values were obtained:
Type in all cases: in vivo, Apis mellifera
[1] = system: honeybees; test: Long-term memory retention of conditioned PER response in honeybees fed supplements
Method: (§1) The bees were brought back to the lab and split into three groups. One control group was fed 40% sugar water in a trough or on parafilm in cage. […] The second and third experimental groups were given 40% sugar water spiked with the cocktail. All honeybees were handled the same way. The mixture was to the honeybees from the beginning of capture, through training and until the completion of the experiment.
Long-term memory enhancements using PKA and caffeine were also tested. […] Approximately 3.9 units PKA/bee (1 μl) and 15.6 units PKA/bee (4 μl) were administrated.

[2] = system: honeybees; test: Trainability of honeybees in PER olfactory conditioning; settings: JHIII alone, 250 mg/ml in acetone, topical administration to thorax, 3 ul; foragers (TNT) or young (linalool)
[3] = system: honeybees; test: Death rate of honeybees after supplement administration; settings: Four μl PKA (15.6 units PKA/bee)
Method: as §1
Long-term memory enhancements using PKA and caffeine were also tested. Caffeine and PKA, when administered separately, increase long-term memory out to a minimum of 3 days post training. Approximately 3.9 units PKA/bee (1 μl) and 15.6 units PKA/bee (4 μl) were administrated.

[4] = 1 μl PKA (approximately 3.9 units PKA/bee)

## Cn1c(=O)c2c(ncn2C)n(C)c1=O [Caffeine, caffeine]
[1]; caffeine at 2.5 mM, compared to concentrations ranging 0-5 mM
  long term memory recall: best improvement in long term memory recall

## COC(=O)/C=C(\C)CC/C=C(\C)CC[C@H]1OC1(C)C [JHIII, Juvenile Hormone III]
[2]
  trainability: does not appear to substantially increase trainability

## Nc1ncnc2c1ncn2[C@@H]1O[C@@H]2COP(=O)(O)O[C@H]2[C@H]1O [cAMP, cyclic adenosine monophosphate]
[1]; 1mM cAMP ingested in 40% sucrose solution, alone
  long-term memory in honeybees trained to C-4: did not appear to significantly increase long-term memory

## protein kinase A [PKA]
[1]; [4]
  long-term memory at the 24 hour mark: increase in long-term memory
  long-term memory at the 48 hour mark: increase in long-term memory
[3]
  death rate at Day 3 post training and exposure: larger death rate
